Laboratory results reported in ChEMBL document CHEMBL1148851, “Chemoenzymatic synthesis and in vitro studies on the hydrolysis of antimicrobial monoglycosyl diglycerides by pancreatic lipase” (2007).
In brackets after ≈: the same amount, converted by molar mass.

Columns and labels:
Type in all cases: functional
Staphylococcus aureus [1] = assay: Antibacterial activity against Staphylococcus aureus ATCC 25923
Staphylococcus aureus [2] = assay: Antibacterial activity against Staphylococcus aureus ATCC 105487
Enterococcus faecalis = assay: Antibacterial activity against Enterococcus faecalis ATCC 29212
Bacillus subtilis = assay: Antibacterial activity against Bacillus subtilis ATCC 6633; conditions: Bacillus subtilis, ATCC 6633; read-out: MIC
Escherichia coli = assay: Antibacterial activity against Escherichia coli ATCC 25922
Pseudomonas aeruginosa = assay: Antibacterial activity against Pseudomonas aeruginosa ATCC 27753
Staphylococcus aureus [3] = assay: Antibacterial activity against Staphylococcus aureus SA85 isolate
Staphylococcus aureus [4] = assay: Antibacterial activity against Staphylococcus aureus SA52 isolate
Staphylococcus aureus [5] = assay: Antibacterial activity against Staphylococcus aureus SA87 isolate; conditions: Staphylococcus aureus; read-out: MIC
[6] = tested on: Mycobacterium tuberculosis; assay: Antibacterial activity against Mycobacterium tuberculosis H37Rv by dilution method; conditions: Mycobacterium tuberculosis, H37Rv; read-out: MIC
[7] = tested on: Mycobacterium tuberculosis; assay: Antibacterial activity against Mycobacterium tuberculosis H160 by dilution method; conditions: Mycobacterium tuberculosis, H160; read-out: MIC
[8] = tested on: Mycobacterium tuberculosis; assay: Antibacterial activity against Mycobacterium tuberculosis H190 by dilution method
Candida albicans = assay: Antifungal activity against Candida albicans by dilution method
Kluyveromyces marxianus = assay: Antifungal activity against Candida pseudotropicalis by dilution method

SMILES	MIC (Staphylococcus aureus [1])	MIC (Staphylococcus aureus [2])	MIC (Enterococcus faecalis)	MIC (Bacillus subtilis)	MIC (Escherichia coli)	MIC (Pseudomonas aeruginosa)	MIC (Staphylococcus aureus [3])	MIC (Staphylococcus aureus [4])	MIC (Staphylococcus aureus [5])	MIC [6]	MIC [7]	MIC [8]	MIC (Candida albicans)	MIC (Kluyveromyces marxianus)
CC/C=C\C/C=C\C/C=C\CCCCCCCC(=O)OCC(CO[C@@H]1O[C@H](CO)[C@@H](O)[C@H](O)[C@H]1O)OC(=O)CCCCCCC/C=C\C/C=C\C/C=C\CC (some centres not stated)	> 128 µg/mL	> 128 µg/mL	> 128 µg/mL	> 128 µg/mL	> 128 µg/mL	> 128 µg/mL	> 128 µg/mL	> 128 µg/mL	> 128 µg/mL	> 128 µg/mL	> 128 µg/mL	> 128 µg/mL	> 128 µg/mL	> 128 µg/mL
CCCCCCCC/C=C\CCCCCCCC(=O)OCC(CO[C@@H]1O[C@H](CO)[C@@H](O)[C@H](O)[C@H]1O)OC(=O)CCCCCCC/C=C\CCCCCCCC (some centres not stated)	> 128 µg/mL	> 128 µg/mL	> 128 µg/mL	> 128 µg/mL	> 128 µg/mL	> 128 µg/mL	> 128 µg/mL	> 128 µg/mL	> 128 µg/mL	> 128 µg/mL	> 128 µg/mL	> 128 µg/mL	> 128 µg/mL	> 128 µg/mL
CC/C=C\C/C=C\C/C=C\CCCCCCCC(=O)OC[C@H](CO[C@@H]1O[C@H](CO)C(O)[C@H](O)[C@H]1O)OC(=O)CCCCCCC/C=C\C/C=C\C/C=C\CC (single isomer, unassigned)	128 µg/mL (≈ 165 µM)	> 128 µg/mL	> 128 µg/mL	> 128 µg/mL	> 128 µg/mL	> 128 µg/mL	> 128 µg/mL	> 128 µg/mL	> 128 µg/mL	> 128 µg/mL	> 128 µg/mL	> 128 µg/mL	> 128 µg/mL	> 128 µg/mL
